Source: BindingDB's records for doi:10.1021/ml2001196 (2011)

Experiments:
[1] = Antagonist activity at CRTH2 receptor in human whole blood assessed as inhibition of PGD2-induced eosinophil chemotaxis
[2] = Antagonist activity at CRTH2 receptor in human whole blood assessed as inhibition of PGD2-induced eosinophil shape change pretreated for 20 mins measured after 1 hr by flow cytometric analysis

| IC50 [1] [µM] | IC50 [2] [µM] | Structure (SMILES) |
| --- | --- | --- |
| 0.0074 | 0.069 | O=C(O)CN1C(=O)[C@@]2(NC(=O)N(Cc3cc(Cl)ccc3F)C2=O)c2cc(Cl)ccc21 |
| 0.047 | – | CN1C(=O)N(Cc2cc(Cl)ccc2F)C(=O)[C@]12C(=O)N(CC(=O)O)c1ccc(Cl)cc12 |
| – | 3.94 | CN1C(=O)N(Cc2csc(-c3ccccc3)n2)C(=O)C12C(=O)N(CC(=O)O)c1ccc(Cl)cc12 (stereo unspecified) |
| 0.062 | 1.8 | O=C(O)CN1C(=O)[C@@]2(CC(=O)N(Cc3cc(Cl)ccc3F)C2)c2cc(Cl)ccc21 [2-[(3S)-5-chloro-1'-[(5-chloro-2-fluorophenyl)methyl]-1,2-dihydrospiro[indole-3,3'-pyrrolidine]-2,5'-dione]acetic acid] |
